Measurements as given in PMC3781147 (PLoS ONE, 2013).

Tests used:
[1] = tested on: mean arterial pressure; assay: Mean arterial pressure in anesthetised rats (study B); assay type: in vivo, rat (male Wistar)
[2] = tested on: heart rate; assay: Heart rate in anesthetised rats (study B); assay type: in vivo, rat (male Wistar)
[3] = tested on: mesenteric arterioles; assay: Intravital microscopy study B: arteriole diameter; assay type: in vivo, rat (male Wistar); settings: n=6
[4] = tested on: mesenteric venules; assay: Intravital microscopy study B: venule diameter; assay type: in vivo, rat (male Wistar)
[5] = tested on: post-capillary venules (<40 µm); assay: Intravital microscopy study B: macromolecular leak of FITC-BSA; assay type: in vivo, rat (male Wistar); settings: n=6
[6] = tested on: leukocyte rolling in post-capillary venules (<40 µm); assay: Intravital microscopy study B: leukocyte rolling; assay type: in vivo, rat (male Wistar); settings: n=6
[7] = tested on: cecal ligation and puncture (CLP) model of sepsis; settings: 0.03 mg kg^-1, rats; improved from approximately 30%; cited from earlier work
Source text: (§1) Only one study has previously utilised the selective NOP antagonist [Nphe^1, Arg^14,Lys^15]

[8] = tested on: hypothalamic pituitary adrenal stress response; settings: UFP-101 i.c.v.; cited from earlier work
Source text: as §1

[9] = tested on: plasma TNF-α and IL-1β; settings: 0.03 mg kg^-1 UFP-101; cited from earlier work
Source text: as §1

[10] = tested on: MAP; settings: UFP-101 i.c.v.; cited from earlier work
Source text: (§2) Further studies likewise reported no differences in MAP between NOP^-/- and wild-type mice. However, our findings of tachycardia are in contrast to Burmeister & Kapusta. […] In ...

[11] = tested on: heart rate, renal sympathetic nerve activity, MAP; settings: 300 pmol UFP-101 into PVN, conscious Sprague-Dawley rats; cited from earlier work
Source text: as §2

[12] = tested on: rat mesenteric microcirculation; settings: unpublished data within previous studies; cited from earlier work
Source text: Despite this, as part unpublished data within previous studies we also observed vasoconstriction with UFP-101 [9]. Compared to larger blood vessels the mesenteric microcirculation as studied here (<40 µm) receives little neural control. Thu ...

[13] = tested on: NOP receptors on rat mesenteric microvascular endothelium; assay: Intravital microscopy study A: FITC-N/OFQ binding in mesenteric microcirculation; assay type: in vivo, rat (male Wistar); settings: n=5

[Nphe^1, Arg^14,Lys^15] N/OFQ-NH2 [UFP-101]
Effect on MAP ([1]; UFP-101 150 nM kg^-1 i.v. alone (no LPS), n=6): no significant effect on MAP | Effect on LPS-induced hypotension ([1]; UFP-101 i.v., LPS rats): no reversal of the tachycardia or mild hypotension induced by LPS | Heart rate, T40 ([2]; UFP-101 150 nM kg^-1 i.v. alone (no LPS), median (IQR), n=6, control 330 (308 to 330), p=0.04): 375 bpm | Effect on LPS-induced heart rate increase ([2]; UFP-101 150 nM kg^-1 i.v. in LPS rats, T40, n=6, p=0.004): not altered by the addition of UFP-101 | Effect on LPS-induced tachycardia ([2]; UFP-101 i.v., LPS rats): no reversal of the tachycardia | Arteriole diameter, T40, UFP-101 ([3]; UFP-101 150 nM kg^-1 i.v. alone (no LPS), median (IQR), control 16.2 (10.9 to 17.7), p=0.004, difference also present initially): 7.1 µm | Venule diameter, UFP-101 ([4]; UFP-101 150 nM kg^-1 i.v. alone (no LPS), T40, median (IQR), n=6, control 19.1 (17.8 to 20.8), p=0.001, difference also present initially): 9.7 µm | Effect on LPS-induced venule vasodilation ([4]; UFP-101 150 nM kg^-1 i.v., LPS rats): reduced vasodilation of venules in response to LPS | Macromolecular leak, T40, LPS + UFP-101 ([5]; 150nmol.kg^-1 UFP-101 i.v. in LPS rats, median (IQR), not significantly different from controls (p=0.063)): -34.9% | Effect on macromolecular leak, no LPS ([5]; UFP-101 150 nmol kg^-1 i.v. alone, p=0.151): no effect | Leukocyte rolling, T40, LPS + UFP-101 ([6]; 150nmol.kg^-1 UFP-101 i.v. in LPS rats, median (IQR), not significantly different from controls (p=0.117)): 0 per min | Effect on leukocyte rolling, no LPS ([6]; UFP-101 150 nmol kg^-1 i.v. alone, p=0.394): no effect | Survival in CLP, UFP-101 [7]: ~65% | HPA stress response to LPS [8]: reduced the hypothalamic pituitary adrenal stress response to LPS | Plasma TNF-α and IL-1β in CLP [9]: reduced plasma concentrations of TNF-α and IL-1β | Effect on MAP, i.c.v. mice [10]: no effect on MAP | Heart rate and renal sympathetic nerve activity [11]: increased heart rate and renal sympathetic nerve activity | MAP after PVN injection [11]: non-significant increase in MAP | Vessel constriction [12]: vasoconstriction

lipopolysaccharide [LPS]
Mean arterial pressure, T40 ([1]; LPS i.v. -24 h 1 mg kg^-1, -2 h 0.5 mg kg^-1, median (interquartile range), n=6, control 105 (95 to 110), p=0.429): 85 mmHg | Heart rate change with LPS, T40 ([2]; LPS i.v. -24 h 1 mg kg^-1, -2 h 0.5 mg kg^-1, n=6, p=0.004): significant increase in heart rate | Arteriole diameter change with LPS ([3]; LPS i.v. -24 h and -2 h, p=0.057): diameter changes in arterioles were not significant | Venule diameter, T40, LPS ([4]; LPS i.v. -24 h and -2 h, median (IQR), n=6, control 19.1 (17.8 to 20.8), p=0.002): 29.1 µm | Macromolecular leak, T40, LPS ([5]; LPS i.v. -24 h and -2 h, % change in interstitial FITC-BSA fluorescence from baseline, median (IQR), control 5.3 (-5.9 to 11.8), p=0.008): 95.3% | Leukocyte rolling, T40, LPS ([6]; LPS i.v. -24 h and -2 h, median (IQR), control 3.0 (0.8 to 3.8), p=0.003): 7.0 per min

CC(C)C[C@H](NC(=O)[C@H](CCCCN)NC(=O)[C@H](CCCNC(=N)N)NC(=O)[C@H](C)NC(=O)[C@H](CO)NC(=O)[C@H](CCCCN)NC(=O)[C@H](CCCNC(=N)N)NC(=O)[C@H](C)NC(=O)CNC(=O)[C@@H](NC(=O)[C@H](Cc1ccccc1)NC(=O)CNC(=O)CNC(=O)[C@@H](N)Cc1ccccc1)[C@@H](C)O)C(=O)N[C@@H](C)C(=O)N[C@@H](CC(N)=O)C(=O)N[C@@H](CCC(N)=O)C(=O)N[C@@H](CCCCNC(=S)Nc1ccc2c(c1)C(=O)OC21c2ccc(O)cc2Oc2cc(O)ccc21)C(N)=O [FITC-N/OFQ, [Lys(FITC)^18]N/OFQ-NH2]
Binding to mesenteric microvascular endothelium ([13]; 200 nM kg^-1 FITC-N/OFQ into mesenteric artery, control rats): bound to specific sites on the endothelium of arterioles | Time course of decay of FITC fluorescence with vs without N/OFQ ([13]; gray level over 60 s, 200 nM kg^-1 FITC-N/OFQ with (T-15) and without (T0) 200 nM.kg^-1 N/OFQ): The time courses were significantly different
